One data set deals with SF-268. Further details: method as in PMID 23136829. As to conditions: read-out: IC50, in vitro cytotoxicity toward SF-268; cited from earlier work.
Another data set relates to MCF-7. Set-up: method as in PMID 23136829. As to conditions: read-out: IC50, in vitro cytotoxicity toward MCF-7; cited from earlier work.
Another data set relates to lung carcinoma, MBA9812. Further details: method as in doi:10.1021/jo00007a009. As to conditions: cited from earlier work.
A further data set concerns Staphylococcus aureus. Further details: method as in PMID 26968676. To be noted: cited from earlier work.
For the next data set, the system named is PC-3 (prostate cancer). Nature of the data set: Sulforhodamine B cytotoxicity assay, PC-3. The format is cell-based. As to conditions: for IC50: 72 h, 72 h continuous exposure, SRB assay, mean ± SD; for Selectivity index (SI), ratio of IC50 in CoN in cancer cells, PC-3: CCD841-CoN IC50 / PC-3 IC50. The protocol:
(§1) To analyse the scope of the shikimic-fragment incorporated in the angucycline scaffold on the cytotoxic activity of these compounds, we included five previously obtained compounds (Figure 2, [32]). Therefore, the cytotoxicity of the new nine synthesised compounds, and of the five aforementioned compounds, was evaluated in vitro against different cancer cell lines: PC-3 (prostate cancer), HT-29 (colon cancer), MCF-7 (breast cancer), and one non-tumoral cell line, human colon epithelial cells (CCD841 CoN). A conventional colorimetric assay was set up to estimate the IC50 values, which represent the concentration of a drug that is required for 50% inhibition in vitro after 72 h of continuous exposure to the test compounds. Several serial dilutions (from 1.25 to 100 µM) for each sample were evaluated in triplicate.
(§2) The experimental cell lines were obtained from the American Type Culture Collection. HT-29 (colon cancer cell line), PC-3 (prostate cancer), MCF-7 (breast cancer), and CCD841 CoN (colon epithelial) were grown in DMEM-F12 containing 10% FCS, 100 U/mL penicillin, 100 µg/mL streptomycin, and 1 mM glutamine.
(§3) The in vitro cytotoxic activities of all the compounds were evaluated on cell lines previously mentioned by the sulforhodamine B assay, according to [42]. Briefly, cells were seeded at a plating density of 5 × 10^3 cells/well into 96 well plates. Cells were incubated at 37 °C for 24 h to allow cell attachment. The test compounds at indicated final concentrations were added to the culture medium and the cell cultures were continued for 72 h under the same conditions. Stock solutions of compounds were prepared in DMSO. Control cultures received 0.1% DMSO alone. At the end of the treatment, cells were fixed with trichloroacetic acid (50% w/v) at 4 °C and, subsequently, washed with water. Cells were stained with 0.1% sulforhodamine B in 1% acetic acid for 30 min. Posteriorly, the cells were washed acetic acid (1%) to remove unbound sulforhodamine B. Protein-bound stain was solubilized with 10 mM unbuffered Tris base). The optical density was determined using a […] plate reader (540 nm). The obtained values are transformed to percentages of viable cells versus control treatment and the IC50 values calculated for each compound in the cell lines were studied using the SigmaPlot 12.0 software (Systat Software, San Jose, CA, USA). Values shown are the mean ± SD of the three independent experiments in triplicate.
For orientation: The SRB assay estimates cell density from bound dye.

In the next data set the test system is HT-29 (colon cancer). Nature of the data set: Sulforhodamine B cytotoxicity assay, HT-29. The format is cell-based. To be noted: for Selectivity index (SI), ratio of IC50 in CoN in cancer cells, HT-29: CCD841-CoN IC50 / HT-29 IC50; for IC50: Homo sapiens, HT-29, 72 h, 72 h continuous exposure, SRB assay, mean ± SD. The protocol: as §1, §2, §3
A further data set relates to MCF-7 (breast cancer). Kind of data set: Sulforhodamine B cytotoxicity assay, MCF-7. Format: cell-based. As to conditions: for Selectivity index (SI), ratio of IC50 in CoN in cancer cells, MCF-7: CCD841-CoN IC50 / MCF-7 IC50; for IC50: Homo sapiens, MCF7, 72 h continuous exposure, SRB assay, mean ± SD, read-out: IC50 Values MCF-7. How it is done:
as §1, §2, §3

Data set [1] relates to human colon epithelial cells (CCD841 CoN). Nature of the data set: Sulforhodamine B cytotoxicity assay, non-tumoral CCD841 CoN. The format is cell-based. To be noted: CCD-841CoN, 72 h continuous exposure, SRB assay, mean ± SD. The protocol: as §1, §2, §3

We go through four compounds from publication PMC6099682, “(-)-Shikimic Acid as a Chiral Building Block for the Synthesis of New Cytotoxic 6-Aza-Analogues of Angucyclinones” (Molecules : A Journal of Synthetic Chemistry and Natural …, 2018).

The IC50 is the midpoint of a concentration-inhibition curve. In general, melting point refers to the temperature of the solid-liquid transition.

Turning to `Cc1cc(O)c2c3c(ncc2c1)C(=O)c1c(O)cccc1C3=O` [Compound 4b, phenanthroviridone], the values for the half-inhibitory concentration (IC50) in the data set with SF-268 and with MCF-7 were 0.09 µM and 0.17 µM, respectively. For the same compound, the “activity against the lung carcinoma, MBA9812, in mice” value with lung carcinoma, MBA9812 is reported as “active”. The “antibacterial activities against Staphylococcus aureus” value in the data set on Staphylococcus aureus is listed as “antibacterial activities”.
For `CO[C@@H]1[C@@H]2C(=CNC3=C2C(=O)c2ccccc2C3=O)C[C@@H](OC)[C@@H]1OC` [Compound 16a, (1R,2S,3R,12bR)-1,2,3-Trimethoxy-1,2,3,4,6,12b-hexahydrobenzo[b]phenanthridine-7,12-dione], the melting point amounted to 161.5 °C. In addition, in the data set on PC-3 (prostate cancer), the IC50 is 23.6 ± 3.7 µM and the “Selectivity index (SI), ratio of IC50 in CoN in cancer cells, PC-3” value is on record as 4.9. In addition, in the data set on HT-29 (colon cancer), the “Selectivity index (SI), ratio of IC50 in CoN in cancer cells, HT-29” value worked out at 2.7 and the IC50 worked out at 42.9 ± 8.4 µM. Moreover, in the data set with MCF-7 (breast cancer), the “Selectivity index (SI), ratio of IC50 in CoN in cancer cells, MCF-7” value is recorded as 1.0 and the concentration for half-maximal inhibition (IC50) amounted to 118 ± 10.8 µM. Moreover, 116 ± 17.8 µM corresponded to half-maximal inhibition in data set [1] (IC50).
As to `CN[C@H]1C[C@@H](Oc2cc(C)cc3cnc4c(c23)C(=O)c2cccc(O)c2C4=O)O[C@H](C)[C@H]1O` [Compound 4a, phenanthroviridin], in the data set with lung carcinoma, MBA9812, the “activity against the lung carcinoma, MBA9812, in mice” value is “active”.
In turn, `CO[C@@H]1[C@@H]2C(=CNC3=C2C(=O)c2c(O)ccc(O)c2C3=O)C[C@@H](OC)[C@@H]1OC` [Compound 16c, (1R,2S,3R,12bR)-8,11-Dihydroxy-1,2,3-trimethoxy-1,2,3,4,6,12b-hexahydrobenzo[b]phenanthridine-7,12-dione] yielded a melting point of 139 °C. Also, in the data set with PC-3 (prostate cancer), half-maximal inhibition (IC50) required 6.4 ± 0.8 µM and the “Selectivity index (SI), ratio of IC50 in CoN in cancer cells, PC-3” value was found to be 1.4. Further, in the data set with HT-29 (colon cancer), the “Selectivity index (SI), ratio of IC50 in CoN in cancer cells, HT-29” value worked out at 2.2 and the IC50 was found to be 4 ± 0.3 µM. Also, in the data set with MCF-7 (breast cancer), the “Selectivity index (SI), ratio of IC50 in CoN in cancer cells, MCF-7” value is 0.7 and the 50% inhibitory concentration (IC50) amounted to 13.5 ± 0.9 µM. Further, it took 8.8 ± 1.3 µM to reach half-maximal inhibition in data set [1] (IC50).
